What all share (type): cell-based
The target in experiment [1] is BaF3 cell lines stably transfected with kinase EGFR Del/T790M (Homo sapiens, UniProt P00533, T790M, cells depend on it, form not given). Kind of experiment: Growth inhibition of BaF3 cell line stably transfected with kinase EGFR Del/T790M (MTS). As to conditions: 48 h, read-out: growth inhibitory activity IC50, Del/T790M. As to the method:
(§1) Biological Activity Assay: Growth Inhibitory Activity of Compounds on Cell Lines Stably Transfected with Kinase
(§2) The activity of compounds against various mutants of kinase EGFR was evaluated by their effect of inhibiting growth of BaF3 cell lines stably transfected with kinase. The specific test method was given as follows:
(§3) 1) Culture medium: DMEM (Dulbecco's modified eagle medium) or RPMI 1640 (containing 10% fetal bovine serum, 100 μg/mL ampicillin, 100 μg/mL streptomycin).
(§4) 2) Reagent: MTS reaction solution (containing 2 mg/mL of MTS [3-(4,5-di methylthiazol-2-yl)-5-(3-carboxymethoxyphenyl)-2-(4-sulfophenyl)-2H-tetrazolium, inner Salt]; 100 μg/mL of PES (phenazine […])).
(§5) 3) Compound test: cells were incubated into a 96-well culture plate, the volume of cytosol was 90 μL, and then 10 μL of the compound at each gradient concentration was added. That is, the highest concentration was 10 μM, which was diluted stepwise by ⅓, and 8 concentration points were set in total; 0.1% DMSO (dimethyl sulfoxide) was contained in the system. The cell plate with uniformly mixed compound was cultured in a cell culture incubator (37° C.; 5% […]) for 48 h, then 20 μL of MTS reaction solution was added, uniformly mixed and incubated in the cell culture incubator (37° C.; 5% CO2) for 1-4 h; OD values at 490 nm were measured by a microplate reader (VARIOSKAN FLASH, Thermo). Two parallels were set in each group of experiments, with 0.1% (a final concentration) DMSO as a negative control, and a culture medium without cells and compounds as a blank control. The cell growth inhibition rate was calculated by the following formula: Cell growth inhibition rate %=1−(ODexperimental group−ODblank group)/(ODnegative group−ODblank group)×100%.
(§6) 4) IC50 calculation: The semi-inhibitory concentration of the compounds acting on cells was calculated using GradPad Prism 5 software according to the measured cell growth inhibition rate.

Experiment [2] has as its target BaF3 cell lines stably transfected with kinase EGFR L858R/T790M (Homo sapiens, UniProt P00533, T790M/L858R, cells depend on it). Kind of experiment: Growth inhibition of BaF3 cell line stably transfected with kinase EGFR L858R/T790M (MTS). As to conditions: 48 h, read-out: growth inhibitory activity IC50, L858R/T790M. As to the method: as §1, §2, §3, §4, §5, §6

For experiment [3], the target named is BaF3 cell lines stably transfected with kinase EGFR L858R (Homo sapiens, UniProt P00533, L858R, cells depend on it). Kind of experiment: Growth inhibition of BaF3 cell line stably transfected with kinase EGFR L858R (MTS). As to conditions: 48 h, read-out: growth inhibitory activity IC50, L858R. As to the method:
as §1, §2, §3, §4, §5, §6

For experiment [4], the target named is BaF3 cell lines stably transfected with kinase EGFR Del/T790M/C797S (Homo sapiens, UniProt P00533, T790M/C797S, cells depend on it, form not given). Kind of experiment: Growth inhibition of BaF3 cell line stably transfected with kinase EGFR Del/T790M/C797S (MTS). As to conditions: 48 h, read-out: growth inhibitory activity IC50, Del/T790M/C797S. The procedure: as §1, §2, §3, §4, §5, §6

Experiment [5] addresses BaF3 cell lines stably transfected with kinase EGFR L858R/T790M/C797S (Homo sapiens, UniProt P00533, T790M/C797S/L858R, cells depend on it). Kind of experiment: Growth inhibition of BaF3 cell line stably transfected with kinase EGFR L858R/T790M/C797S (MTS). As to conditions: 48 h, read-out: growth inhibitory activity IC50, L858R/T790M/C797S. As to the method: as §1, §2, §3, §4, §5, §6

In experiment [6] the target is BaF3 cell lines stably transfected with kinase EGFR Del (Homo sapiens, UniProt P00533, cells depend on it, form not given). Kind of experiment: Growth inhibition of BaF3 cell line stably transfected with kinase EGFR Del (MTS). The settings on record: 48 h, read-out: growth inhibitory activity IC50, Del. As to the method:
as §1, §2, §3, §4, §5, §6

The results in this text go back to patent US12679822B2, “Alkenyl pyrimidine compound, preparation method therefor, and application thereof” (Hongyun Biotech Co., Ltd., priority 2020, dated 2026).

Bounds are passed on as bounds.

BaF3 cell lines stably transfected with kinase EGFR Del/T790M, sequence (P00533 with tags, fused parts or gaps DEL746-750/T790M, form open): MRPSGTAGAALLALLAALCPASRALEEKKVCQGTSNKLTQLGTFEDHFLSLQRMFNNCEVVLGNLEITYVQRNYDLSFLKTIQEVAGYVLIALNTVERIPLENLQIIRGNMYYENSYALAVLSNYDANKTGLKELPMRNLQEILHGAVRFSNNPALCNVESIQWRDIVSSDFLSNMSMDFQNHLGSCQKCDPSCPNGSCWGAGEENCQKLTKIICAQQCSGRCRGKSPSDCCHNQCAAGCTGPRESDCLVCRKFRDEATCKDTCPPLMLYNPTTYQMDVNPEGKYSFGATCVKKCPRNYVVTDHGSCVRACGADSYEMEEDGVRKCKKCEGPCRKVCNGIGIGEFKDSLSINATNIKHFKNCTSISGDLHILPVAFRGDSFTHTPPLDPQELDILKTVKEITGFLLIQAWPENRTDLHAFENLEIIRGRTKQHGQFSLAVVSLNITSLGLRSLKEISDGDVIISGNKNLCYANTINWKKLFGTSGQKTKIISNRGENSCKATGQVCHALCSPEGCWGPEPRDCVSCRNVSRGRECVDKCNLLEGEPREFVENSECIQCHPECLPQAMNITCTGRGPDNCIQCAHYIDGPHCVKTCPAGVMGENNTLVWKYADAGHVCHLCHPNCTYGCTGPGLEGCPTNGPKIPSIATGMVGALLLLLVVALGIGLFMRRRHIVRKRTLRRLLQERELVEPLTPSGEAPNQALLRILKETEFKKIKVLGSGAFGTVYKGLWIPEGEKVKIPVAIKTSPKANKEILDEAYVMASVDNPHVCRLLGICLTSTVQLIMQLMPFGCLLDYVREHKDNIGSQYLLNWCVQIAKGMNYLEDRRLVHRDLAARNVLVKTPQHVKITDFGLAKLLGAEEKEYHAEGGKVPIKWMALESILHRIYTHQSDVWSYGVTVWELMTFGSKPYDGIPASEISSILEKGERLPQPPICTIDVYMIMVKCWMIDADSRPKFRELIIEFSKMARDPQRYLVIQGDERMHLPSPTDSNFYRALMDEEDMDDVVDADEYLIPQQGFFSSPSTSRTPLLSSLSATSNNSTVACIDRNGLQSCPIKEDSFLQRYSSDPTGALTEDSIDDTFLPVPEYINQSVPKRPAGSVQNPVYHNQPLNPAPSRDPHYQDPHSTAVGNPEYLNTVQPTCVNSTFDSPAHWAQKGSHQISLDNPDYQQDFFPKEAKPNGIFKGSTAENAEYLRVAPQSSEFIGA
BaF3 cell lines stably transfected with kinase EGFR L858R/T790M/C797S, sequence (P00533 whole entry T790M/C797S/L858R): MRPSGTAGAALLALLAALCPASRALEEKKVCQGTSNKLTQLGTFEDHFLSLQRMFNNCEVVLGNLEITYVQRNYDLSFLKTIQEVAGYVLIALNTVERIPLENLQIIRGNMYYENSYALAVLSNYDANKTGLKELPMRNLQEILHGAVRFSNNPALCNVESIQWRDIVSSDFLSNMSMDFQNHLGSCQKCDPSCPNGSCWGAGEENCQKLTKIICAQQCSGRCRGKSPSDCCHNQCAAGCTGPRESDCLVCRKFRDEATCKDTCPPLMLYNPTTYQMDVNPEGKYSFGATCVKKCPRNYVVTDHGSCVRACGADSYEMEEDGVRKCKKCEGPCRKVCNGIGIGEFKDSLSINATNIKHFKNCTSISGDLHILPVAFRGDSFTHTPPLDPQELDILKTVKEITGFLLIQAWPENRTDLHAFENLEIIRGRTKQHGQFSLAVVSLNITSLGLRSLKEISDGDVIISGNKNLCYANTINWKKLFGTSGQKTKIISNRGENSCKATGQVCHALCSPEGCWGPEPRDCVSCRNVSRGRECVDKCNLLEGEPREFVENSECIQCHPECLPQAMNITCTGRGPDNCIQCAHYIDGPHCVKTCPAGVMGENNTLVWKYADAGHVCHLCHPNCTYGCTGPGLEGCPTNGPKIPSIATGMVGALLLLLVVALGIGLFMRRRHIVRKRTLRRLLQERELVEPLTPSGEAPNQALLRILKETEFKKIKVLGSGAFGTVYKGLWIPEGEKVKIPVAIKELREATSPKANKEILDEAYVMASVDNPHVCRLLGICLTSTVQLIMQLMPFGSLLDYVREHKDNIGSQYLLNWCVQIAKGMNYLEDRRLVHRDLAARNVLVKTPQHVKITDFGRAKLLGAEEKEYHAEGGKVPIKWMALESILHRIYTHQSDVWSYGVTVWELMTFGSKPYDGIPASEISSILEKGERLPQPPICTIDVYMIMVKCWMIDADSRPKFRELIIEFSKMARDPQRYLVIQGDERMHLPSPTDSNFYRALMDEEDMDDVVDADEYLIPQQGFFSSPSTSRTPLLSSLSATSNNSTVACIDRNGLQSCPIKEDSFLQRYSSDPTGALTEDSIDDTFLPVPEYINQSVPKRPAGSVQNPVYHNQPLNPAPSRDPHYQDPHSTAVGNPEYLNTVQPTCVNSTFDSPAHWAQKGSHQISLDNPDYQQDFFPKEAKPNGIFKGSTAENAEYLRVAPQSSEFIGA
BaF3 cell lines stably transfected with kinase EGFR Del/T790M/C797S, sequence (P00533 with tags, fused parts or gaps DEL746-750/T790M/C797S, form open): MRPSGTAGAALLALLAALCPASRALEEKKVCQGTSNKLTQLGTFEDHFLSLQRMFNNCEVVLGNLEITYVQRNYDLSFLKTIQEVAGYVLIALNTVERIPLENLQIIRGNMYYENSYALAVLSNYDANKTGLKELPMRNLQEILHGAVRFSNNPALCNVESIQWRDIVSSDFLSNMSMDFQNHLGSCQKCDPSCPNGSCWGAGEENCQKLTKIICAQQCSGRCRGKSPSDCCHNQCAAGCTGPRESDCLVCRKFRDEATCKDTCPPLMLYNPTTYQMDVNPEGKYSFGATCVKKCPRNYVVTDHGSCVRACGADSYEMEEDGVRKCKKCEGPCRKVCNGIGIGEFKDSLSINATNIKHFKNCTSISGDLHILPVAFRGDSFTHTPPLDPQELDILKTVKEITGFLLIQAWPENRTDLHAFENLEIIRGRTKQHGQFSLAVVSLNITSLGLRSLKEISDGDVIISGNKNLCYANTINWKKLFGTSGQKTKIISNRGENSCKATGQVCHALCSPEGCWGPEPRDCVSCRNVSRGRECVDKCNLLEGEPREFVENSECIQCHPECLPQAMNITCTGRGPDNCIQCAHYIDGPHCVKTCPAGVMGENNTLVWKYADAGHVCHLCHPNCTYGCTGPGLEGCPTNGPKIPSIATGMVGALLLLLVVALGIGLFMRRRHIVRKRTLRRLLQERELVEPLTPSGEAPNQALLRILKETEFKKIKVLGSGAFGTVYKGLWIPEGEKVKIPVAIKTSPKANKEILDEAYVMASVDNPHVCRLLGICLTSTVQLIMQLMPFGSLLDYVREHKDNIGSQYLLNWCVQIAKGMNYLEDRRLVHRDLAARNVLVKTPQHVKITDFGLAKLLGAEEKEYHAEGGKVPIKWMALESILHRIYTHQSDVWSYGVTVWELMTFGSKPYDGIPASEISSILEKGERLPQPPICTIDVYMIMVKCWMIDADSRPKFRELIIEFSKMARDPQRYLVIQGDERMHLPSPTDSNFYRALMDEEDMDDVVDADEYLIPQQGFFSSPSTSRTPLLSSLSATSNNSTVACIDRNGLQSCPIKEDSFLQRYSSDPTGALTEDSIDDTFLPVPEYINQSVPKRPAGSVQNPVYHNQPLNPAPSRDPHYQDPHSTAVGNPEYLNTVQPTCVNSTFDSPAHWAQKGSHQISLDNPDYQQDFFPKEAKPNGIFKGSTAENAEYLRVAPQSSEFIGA
BaF3 cell lines stably transfected with kinase EGFR L858R, sequence (P00533 whole entry L858R): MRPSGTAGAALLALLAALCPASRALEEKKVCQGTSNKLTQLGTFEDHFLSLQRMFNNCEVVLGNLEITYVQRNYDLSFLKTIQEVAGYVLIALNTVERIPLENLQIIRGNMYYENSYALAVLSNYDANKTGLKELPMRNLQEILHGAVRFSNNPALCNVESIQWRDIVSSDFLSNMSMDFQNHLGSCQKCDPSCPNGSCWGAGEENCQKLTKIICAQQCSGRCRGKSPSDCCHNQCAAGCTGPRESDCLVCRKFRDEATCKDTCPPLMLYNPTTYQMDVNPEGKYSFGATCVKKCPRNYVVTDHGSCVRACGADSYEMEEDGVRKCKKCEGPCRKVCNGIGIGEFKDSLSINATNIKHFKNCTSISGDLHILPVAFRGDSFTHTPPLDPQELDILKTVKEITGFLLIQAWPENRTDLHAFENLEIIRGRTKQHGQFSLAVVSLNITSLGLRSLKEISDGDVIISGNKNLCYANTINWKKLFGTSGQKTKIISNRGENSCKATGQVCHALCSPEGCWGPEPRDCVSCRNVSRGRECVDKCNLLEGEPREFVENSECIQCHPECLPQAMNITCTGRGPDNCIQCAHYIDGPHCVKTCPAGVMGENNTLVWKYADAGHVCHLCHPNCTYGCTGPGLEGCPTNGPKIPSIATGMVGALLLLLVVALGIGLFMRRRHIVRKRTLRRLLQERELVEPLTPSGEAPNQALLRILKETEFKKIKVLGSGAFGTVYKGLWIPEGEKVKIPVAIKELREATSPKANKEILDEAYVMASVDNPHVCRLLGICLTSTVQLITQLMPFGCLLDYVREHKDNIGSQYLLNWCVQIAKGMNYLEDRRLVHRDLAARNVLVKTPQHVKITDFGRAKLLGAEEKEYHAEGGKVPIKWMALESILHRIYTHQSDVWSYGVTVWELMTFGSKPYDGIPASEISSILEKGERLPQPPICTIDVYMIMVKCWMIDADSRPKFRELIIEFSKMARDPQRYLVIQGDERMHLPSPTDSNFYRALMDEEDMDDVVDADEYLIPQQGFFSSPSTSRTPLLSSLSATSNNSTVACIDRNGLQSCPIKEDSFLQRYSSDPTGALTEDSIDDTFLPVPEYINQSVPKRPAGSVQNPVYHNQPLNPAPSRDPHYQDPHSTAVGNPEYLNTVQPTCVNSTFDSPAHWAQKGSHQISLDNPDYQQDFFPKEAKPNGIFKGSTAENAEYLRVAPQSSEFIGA

`C=C(C)c1cnc(Nc2ccc(N3CCC(N4CCN(C)CC4)CC3)c(CC)c2)nc1Nc1ccc2nccnc2c1N(C)S(C)(=O)=O` [II-24]: the GI50 in experiment [1] was not above 50 nM; in experiment [2], not above 50 nM; in experiment [3], not above 50 nM; in experiment [4], 50 to 500 nM; in experiment [5], 50 to 500 nM; in experiment [6], not above 50 nM.

For `CCc1cc(Nc2ncc(C=C(C)C)c(Nc3ccc4nccnc4c3N(C)S(C)(=O)=O)n2)c(OC)cc1N1CCC(N2CCN(C)CC2)CC1` [II-26], the GI50 in experiment [1] was 500 to 2500 nM; in experiment [2] it was 500 to 2500 nM; in experiment [3], 50 to 500 nM; in experiment [4], 500 to 2500 nM; in experiment [5], 500 to 2500 nM; in experiment [6], not above 50 nM.

As to `CCc1cc(Nc2ncc(C3=CCCC3)c(Nc3ccc4nccnc4c3N(C)S(C)(=O)=O)n2)c(OC)cc1N1CCC(N2CCN(C)CC2)CC1` [II-27], the GI50 is 500 to 2500 nM in experiment [1]; 500 to 2500 nM in experiment [2]; 50 to 500 nM in experiment [3]; 500 to 2500 nM in experiment [4]; 500 to 2500 nM in experiment [5]; not above 50 nM in experiment [6].

Consider `CCc1cc(Nc2ncc(/C=C/C3CC3)c(Nc3ccc4nccnc4c3N(C)S(C)(=O)=O)n2)c(OC)cc1N1CCC(N2CCN(C)CC2)CC1` [II-28], for which the GI50 in experiment [1] is 500 to 2500 nM; in experiment [2] it was 500 to 2500 nM; in experiment [3] it was 50 to 500 nM; in experiment [4] it was 500 to 2500 nM; in experiment [5], 500 to 2500 nM; in experiment [6] it was not above 50 nM.

For `CCc1cc(Nc2ncc(/C=C/c3ccccc3)c(Nc3ccc4nccnc4c3N(C)S(C)(=O)=O)n2)c(OC)cc1N1CCC(N2CCN(C)CC2)CC1` [II-29], the GI50 in experiment [1] lay within 500 to 2500 nM; in experiment [2], 500 to 2500 nM; in experiment [3], 50 to 500 nM; in experiment [4] it was 500 to 2500 nM; in experiment [5], 500 to 2500 nM; in experiment [6] it was 50 to 500 nM.

Turning to `C=Cc1cnc(Nc2cc(C)c(N3CCC(N4CCN(C)CC4)CC3)cc2OC)nc1Nc1ccc2nccnc2c1NS(C)(=O)=O` [II-31], the GI50 in experiment [1] was not above 50 nM; in experiment [2], 50 to 500 nM; in experiment [3], not above 50 nM; in experiment [4], 50 to 500 nM; in experiment [5], not above 50 nM; in experiment [6], not above 50 nM.

Consider `C=Cc1cnc(Nc2cc(CC)c(N3CCC(N4CCN(C)CC4)CC3)cc2OC)nc1Nc1ccc2nccnc2c1NS(C)(=O)=O` [II-32], for which the GI50 is not above 50 nM in experiment [1]; 50 to 500 nM in experiment [2]; not above 50 nM in experiment [3]; 50 to 500 nM in experiment [4]; 50 to 500 nM in experiment [5]; not above 50 nM in experiment [6].

For the compound `C=Cc1cnc(Nc2cc(CC)c(N3CCC(N4CCN(C)CC4)CC3)nc2OC)nc1Nc1ccc2nccnc2c1NS(C)(=O)=O` [II-33], the GI50 in experiment [1] is 50 to 500 nM; in experiment [2] it was 50 to 500 nM; in experiment [3], not above 50 nM; in experiment [4] it was 50 to 500 nM; in experiment [5], 50 to 500 nM; in experiment [6], not above 50 nM.

As for `C=Cc1cnc(Nc2cc(CC)c(N3CCC(N4CCN(C)CC4)CC3)cc2OC(F)(F)F)nc1Nc1ccc2nccnc2c1NS(C)(=O)=O` [II-34], the GI50 in experiment [1], in experiment [2], in experiment [3], in experiment [4], in experiment [5] and in experiment [6] was 50 to 500 nM each time.

In the case of `C=Cc1cnc(Nc2cc(C(C)C)c(N3CCC(N4CCN(C)CC4)CC3)cc2OC)nc1Nc1ccc2nccnc2c1NS(C)(=O)=O` [II-35], the GI50 in experiment [1] lay within 50 to 500 nM; in experiment [2], 500 to 2500 nM; in experiment [3] it was 50 to 500 nM; in experiment [4] it was 500 to 2500 nM; in experiment [5], 50 to 500 nM; in experiment [6], 50 to 500 nM.

As for `C=Cc1cnc(Nc2cc(C3CC3)c(N3CCC(N4CCN(C)CC4)CC3)cc2OC)nc1Nc1ccc2nccnc2c1NS(C)(=O)=O` [II-36], the GI50 in experiment [1] was not above 50 nM; in experiment [2] it was 50 to 500 nM; in experiment [3], not above 50 nM; in experiment [4], 50 to 500 nM; in experiment [5], not above 50 nM; in experiment [6] it was not above 50 nM.

As for `C=Cc1cnc(Nc2cc(CC3CC3)c(N3CCC(N4CCN(C)CC4)CC3)cc2OC)nc1Nc1ccc2nccnc2c1NS(C)(=O)=O` [II-37], the GI50 in experiment [1] is not above 50 nM; in experiment [2], 50 to 500 nM; in experiment [3], not above 50 nM; in experiment [4], 50 to 500 nM; in experiment [5], not above 50 nM; in experiment [6], not above 50 nM.

Take `C=Cc1cnc(Nc2ccc(N3CCC(N4CCN(C)CC4)CC3)c(CC)c2)nc1Nc1ccc2nccnc2c1NS(C)(=O)=O` [II-38]: the GI50 was not above 50 nM in experiment [1]; not above 50 nM in experiment [2]; not above 50 nM in experiment [3]; 50 to 500 nM in experiment [4]; not above 50 nM in experiment [5]; not above 50 nM in experiment [6].

Take `C=Cc1cnc(Nc2cc(CC)c(N3CCC(N(C)C)CC3)cc2OC)nc1Nc1ccc2nccnc2c1NS(C)(=O)=O` [II-39]: the GI50 in experiment [1], in experiment [2], in experiment [3], in experiment [4], in experiment [5] and in experiment [6] was not above 50 nM in each case.

On to `C=Cc1cnc(Nc2cc(CC)c(N3CCC(N(C)C)C3)cc2OC)nc1Nc1ccc2nccnc2c1NS(C)(=O)=O` (stereo not drawn) [II-40], for which the GI50 in experiment [1] is not above 50 nM; in experiment [2] it was 50 to 500 nM; in experiment [3] it was not above 50 nM; in experiment [4], not above 50 nM; in experiment [5] it was not above 50 nM; in experiment [6], not above 50 nM.

Consider `C=Cc1cnc(Nc2cc(CC)c(N3CCN(C)CC3)cc2OC)nc1Nc1ccc2nccnc2c1NS(C)(=O)=O` [II-41], for which the GI50 was not above 50 nM in experiment [1]; 50 to 500 nM in experiment [2]; not above 50 nM in experiment [3]; not above 50 nM in experiment [4]; not above 50 nM in experiment [5]; not above 50 nM in experiment [6].

On to `C=Cc1cnc(Nc2ccc(N3CCC(N4CCN(C)CC4)CC3)cc2OC)nc1Nc1ccc2nccnc2c1NS(=O)(=O)C(C)C` [II-42], for which the GI50 in experiment [1] is 500 to 2500 nM; in experiment [2], 500 to 2500 nM; in experiment [3] it was 500 to 2500 nM; in experiment [4] it was 500 to 2500 nM; in experiment [5], 50 to 500 nM; in experiment [6] it was 500 to 2500 nM.

`C=Cc1cnc(Nc2cc(C)c(N3CCC(N4CCN(C)CC4)CC3)cc2OC)nc1Nc1ccc2nccnc2c1NS(=O)(=O)C(C)C` [II-43]: the GI50 is 50 to 500 nM in experiment [1]; 500 to 2500 nM in experiment [2]; 50 to 500 nM in experiment [3]; 50 to 500 nM in experiment [4]; 50 to 500 nM in experiment [5]; 50 to 500 nM in experiment [6].

Regarding `C=Cc1cnc(Nc2cc(CC)c(N3CCC(N4CCN(C)CC4)CC3)cc2OC)nc1Nc1ccc2nccnc2c1NS(=O)(=O)C(C)C` [II-44], the GI50 in experiment [1] is 50 to 500 nM; in experiment [2], 500 to 2500 nM; in experiment [3] it was 50 to 500 nM; in experiment [4], 50 to 500 nM; in experiment [5] it was not above 50 nM; in experiment [6] it was 50 to 500 nM.

`C=Cc1cnc(Nc2ccc(N3CCC(N4CCN(C)CC4)CC3)c(F)c2F)nc1Nc1ccc2nccnc2c1NS(C)(=O)=O` [II-45]: the GI50 in experiment [1] lay within 50 to 500 nM; in experiment [2], 50 to 500 nM; in experiment [3] it was 50 to 500 nM; in experiment [4] it was 500 to 2500 nM; in experiment [5] it was 500 to 2500 nM; in experiment [6] it was 50 to 500 nM.
